Each molecule was assayed against human CXCR3A (Homo sapiens (Human), UniProt P49682) (assay: FLIPR assay). Conditions: CHO-K1 cells expressing the human CXCR3A coupled to Galpha(16); CXCL10 agonist 20 nM; Fluo-4-AM fluorescence; mean values if determined several times.
Type: cell-based
Procedure: The bioactivity of compounds is tested in a fluorometric imaging plate reader (FLIPR: Molecular Devices) using engineered CHO-K1 cells expressing the human CXCR3A coupled to a G protein (Galpha(16)). Cells are plated the day prior to bioassay in F12 medium supplemented with 10% FBS and G418 and hygromycin antibiotics to maintain recombinant selection. At the day of bioassay, cells are washed and dye loaded for one hour with Fluo-4-AM (Invitrogen) in Hanks Balanced Salt Solution (Invitrogen), buffered with 20 mM Hepes at pH 7.4 and sodium bicarbonate (0.015%), containing 5 mM probenecid. […] Cells are washed free of excess dye and 60 microliter of wash buffer is added. Stock solutions of test compounds are made up at a concentration of 10 mM in DMSO, and serially diluted in dilution buffer to concentrations required for inhibition dose response curves. After a 10 minute incubation period at 37° C., 10 microliters of each compound dilution are transferred from a compound plate to the plate containing the recombinant cells in the FLIPR instrument according to the manufacturer's instructions. Following basal readings, 10 microliter CXCL10 agonist at a concentration of 20 nM (from Peprotech) is added, again using the FLIPR instrument. Changes in fluorescence are monitored before and after addition of the test compounds. Emission peak values above base level after CXCL10 addition are exported after base line subtraction. The program XLfit is used to fit the data to a single site dose response curve and to calculate IC50 values.

Chain of human CXCR3A (P49682 whole entry): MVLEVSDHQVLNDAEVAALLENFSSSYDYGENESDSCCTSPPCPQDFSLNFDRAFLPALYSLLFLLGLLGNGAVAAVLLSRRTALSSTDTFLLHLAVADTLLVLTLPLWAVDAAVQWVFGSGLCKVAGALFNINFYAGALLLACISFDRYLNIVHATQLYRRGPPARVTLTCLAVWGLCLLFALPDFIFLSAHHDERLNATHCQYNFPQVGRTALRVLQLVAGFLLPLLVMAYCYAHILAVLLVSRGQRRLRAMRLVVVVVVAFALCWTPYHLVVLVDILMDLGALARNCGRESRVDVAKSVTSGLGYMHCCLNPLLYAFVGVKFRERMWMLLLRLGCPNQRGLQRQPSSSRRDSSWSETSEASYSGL

Row | Molecule | IC50
1 | 1-{(R)-4-[4-(1H-Benzoimidazol-2-yl)-thiazol-5-yl]-2-methoxymethyl-piperazin-1-yl}-2-pyrrolo[2,3-b]pyridin-1-yl-ethanone [Example 20] | 69 nM
2 | O=C(Cn1ccc(C(F)(F)F)n1)N1CCN(c2scnc2-c2nc3ccccc3[nH]2)CC1 [Example 5, 1-{4-[4-(1H-Benzoimidazol-2-yl)-thiazol-5-yl]-piperazin-1-yl}-2-(3-trifluoromethyl-pyrazol-1-yl)-ethanone] | 33 nM
3 | Cc1ccn(CC(=O)N2CCN(c3scnc3-c3nc4ccccc4[nH]3)CC2)n1 [Example 6, 1-{4-[4-(1H-Benzoimidazol-2-yl)-thiazol-5-yl]-piperazin-1-yl}-2-(3-methyl-pyrazol-1-yl)-ethanone] | 130 nM
4 | Cc1nc(CC(=O)N2CCN(c3scnc3-c3nc4ccccc4[nH]3)CC2)cs1 [Example 7, 1-{4-[4-(1H-Benzoimidazol-2-yl)-thiazol-5-yl]-piperazin-1-yl}-2-(2-methyl-thiazol-4-yl)-ethanone] | 516 nM
5 | O=C(Cc1cn2nc(Cl)ccc2n1)N1CCN(c2scnc2-c2nc3ccccc3[nH]2)CC1 [Example 8, 1-{4-[4-(1H-Benzoimidazol-2-yl)-thiazol-5-yl]-piperazin-1-yl}-2-(6-chloro-imidazo[1,2-b]pyridazin-2-yl)-ethanone] | 392 nM
6 | Cc1nc2ccccn2c1CC(=O)N1CCN(c2scnc2-c2nc3ccccc3[nH]2)CC1 [Example 9, 1-{4-[4-(1H-Benzoimidazol-2-yl)-thiazol-5-yl]-piperazin-1-yl}-2-(2-methyl-imidazo[1,2-a]pyridin-3-yl)-ethanone] | 90 nM
7 | Cc1nc(C)c(CC(=O)N2CCN(c3scnc3-c3nc4ccccc4[nH]3)CC2)s1 [Example 11, 1-{4-[4-(1H-Benzoimidazol-2-yl)-thiazol-5-yl]-piperazin-1-yl}-2-(2,4-dimethyl-thiazol-5-yl)-ethanone] | 311 nM
8 | COc1ccc2onc(CC(=O)N3CCN(c4scnc4-c4nc5ccccc5[nH]4)CC3)c2c1 [Example 12, 1-{4-[4-(1H-Benzoimidazol-2-yl)-thiazol-5-yl]-piperazin-1-yl}-2-(5-methoxy-benzo[d]isoxazol-3-yl)-ethanone] | 314 nM
9 | Cc1cc(C)n(CC(=O)N2CCN(c3scnc3-c3nc4ccccc4[nH]3)CC2)n1 [Example 13, 1-{4-[4-(1H-Benzoimidazol-2-yl)-thiazol-5-yl]-piperazin-1-yl}-2-(3,5-dimethyl-pyrazol-1-yl)-ethanone] | 92 nM
10 | C[C@@H]1CN(c2scnc2-c2nc3c(F)cccc3[nH]2)CCN1C(=O)Cn1ccc2cccnc21 [Example 21, 1-{(R)-4-[4-(4-Fluoro-1H-benzoimidazol-2-yl)-thiazol-5-yl]-2-methyl-piperazin-1-yl}-2-pyrrolo[2,3-b]pyridin-1-yl-ethanone] | 2 nM
11 | C[C@@H]1CN(c2scnc2-c2nc3cc(Cl)c(F)cc3[nH]2)CCN1C(=O)Cn1ccc2cccnc21 [Example 26, 1-{(R)-4-[4-(5-Chloro-6-fluoro-1H-benzoimidazol-2-yl)-thiazol-5-yl]-2-methyl-piperazin-1-yl}-2-pyrrolo[2,3-b]pyridin-1-yl-ethanone] | 1 nM

Second part, the molecule after the results:

Row | IC50 | Molecule
12 | 1 nM | C[C@@H]1CN(c2scnc2-c2nc3c(F)c(F)ccc3[nH]2)CCN1C(=O)Cn1ccc2cccnc21 [Example 28, 1-{(R)-4-[4-(4,5-Difluoro-1H-benzoimidazol-2-yl)-thiazol-5-yl]-2-methyl-piperazin-1-yl}-2-pyrrolo[2,3-b]pyridin-1-yl-ethanone]
13 | 4 nM | Cn1c(=O)n(CC(=O)N2CCN(c3scnc3-c3nc4c(Cl)cccc4[nH]3)CC2)c2ccccc21 [Example 29, 1-(2-{4-[4-(4-Chloro-1H-benzoimidazol-2-yl)-thiazol-5-yl]-piperazin-1-yl}-2-oxo-ethyl)-3-methyl-1,3-dihydro-benzoimidazol-2-one]
14 | 5 nM | COc1ccc2[nH]c(-c3ncsc3N3CCN(C(=O)Cn4c(=O)n(C)c5ccccc54)CC3)nc2c1 [Example 33, 1-(2-{4-[4-(5-Methoxy-1H-benzoimidazol-2-yl)-thiazol-5-yl]-piperazin-1-yl}-2-oxo-ethyl)-3-methyl-1,3-dihydro-benzoimidazol-2-one]
15 | 10 nM | Cn1c(=O)n(CC(=O)N2CCN(c3scnc3-c3nc4ccc(F)cc4[nH]3)CC2)c2ccccc21 [Example 34, 1-(2-{4-[4-(6-Fluoro-1H-benzoimidazol-2-yl)-thiazol-5-yl]-piperazin-1-yl}-2-oxo-ethyl)-3-methyl-1,3-dihydro-benzoimidazol-2-one]
16 | 17 nM | COc1cc2nc(-c3ncsc3N3CCN(C(=O)Cn4c(=O)n(C)c5ccccc54)CC3)[nH]c2cc1OC [Example 36, 1-(2-{4-[4-(5,6-Dimethoxy-1H-benzoimidazol-2-yl)-thiazol-5-yl]-piperazin-1-yl}-2-oxo-ethyl)-3-methyl-1,3-dihydro-benzoimidazol-2-one]
17 | 20 nM | Cc1nc(-c2nc3ccccc3[nH]2)c(N2CCN(C(=O)Cn3ccc4cccnc43)CC2)s1 [Example 40, 1-{4-[4-(1H-Benzoimidazol-2-yl)-2-methyl-thiazol-5-yl]-piperazin-1-yl}-2-pyrrolo[2,3-b]pyridin-1-yl-ethanone]
18 | 77 nM | O=C(Cn1ccc2cccnc21)N1CCN(c2sc(-c3ccccc3)nc2-c2nc3ccccc3[nH]2)CC1 [Example 41, 1-{4-[4-(1H-Benzoimidazol-2-yl)-2-phenyl-thiazol-5-yl]-piperazin-1-yl}-2-pyrrolo[2,3-b]pyridin-1-yl-ethanone]
19 | 547 nM | O=C(Cn1ccc2cccnc21)N1CCN(c2sc(Cl)nc2-c2nc3ccccc3[nH]2)CC1 [Example 42, 1-{4-[4-(1H-Benzoimidazol-2-yl)-2-chloro-thiazol-5-yl]-piperazin-1-yl}-2-pyrrolo[2,3-b]pyridin-1-yl-ethanone]
20 | 48 nM | O=C(Cn1cnc2cccnc21)N1CCCN(c2scnc2-c2nc3ccccc3[nH]2)CC1 [Example 45, 1-{4-[4-(1H-Benzoimidazol-2-yl)-thiazol-5-yl]-[1,4]diazepan-1-yl}-2-imidazo[4,5-b]pyridin-3-yl-ethanone]
21 | 18 nM | C[C@H]1CN(c2scnc2-c2nc3ccccc3[nH]2)CCN1C(=O)Cn1cnc2cccnc21 [Example 47, 1-{(S)-4-[4-(1H-Benzoimidazol-2-yl)-thiazol-5-yl]-2-methyl-piperazin-1-yl}-2-imidazo[4,5-b]pyridin-3-yl-ethanone]
22 | 448 nM | O=C(Cn1cnc2cccnc21)N1CCC(c2scnc2-c2nc3ccccc3[nH]2)CC1 [Example 48, 1-{4-[4-(1H-Benzoimidazol-2-yl)-thiazol-5-yl]-piperidin-1-yl}-2-imidazo[4,5-b]pyridin-3-yl-ethanone]
23 | 136 nM | COc1cccc2c1ccn2CC(=O)N1CCN(c2scnc2-c2nc3ccccc3[nH]2)CC1 [Example 52, 1-{4-[4-(1H-Benzoimidazol-2-yl)-thiazol-5-yl]-piperazin-1-yl}-2-(4-methoxy-indol-1-yl)-ethanone]
24 | 15 nM | O=C(Cn1ccc2cc(Cl)c(Cl)cc21)N1CCN(c2scnc2-c2nc3ccccc3[nH]2)CC1 [Example 53, 1-{4-[4-(1H-Benzoimidazol-2-yl)-thiazol-5-yl]-piperazin-1-yl}-2-(5,6-dichloro-indol-1-yl)-ethanone]
